According to the supplement of paper PMC10307832:

What was measured:
Assay in all cases: relative viability (nuclei count vs DMSO), 5 days (fraction); higher = more cells survive
[1] = compound: CC[C@@H]1C(=O)N(C)c2cnc(Nc3ccc(C(=O)NC4CCN(C)CC4)cc3OC)nc2N1C1CCCC1 [BI-2536] + CS(=O)(=O)N1CCN(Cc2cc3nc(-c4cccc5[nH]ncc45)nc(N4CCOCC4)c3s2)CC1 [Pictilisib] (partner 1 µM)
How it was run: (§1)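 Medians of duplicate plates are given as relative viability. That measure is the nuclei count in treated wells divided by the count in vehicle wells. Counts were taken on 4× images of lung cancer cell lines in 1536-well plates, 5 days after pin-tool dosing the day after seeding with one drug alone or a fixed anchor-drug dose plus five library-drug doses (not always all listed) in √10 steps.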

[2] = compound: CC[C@@H]1C(=O)N(C)c2cnc(Nc3ccc(C(=O)NC4CCN(C)CC4)cc3OC)nc2N1C1CCCC1 [BI-2536] + O=C(CCCCCCC(=O)Nc1ccccc1)NO [Vorinostat] (partner 1 µM)
How it was run: as §1

[3] = compound: CC1CC(=O)N(C2=CN=C(N=C2N1C3CCCC3)NC4=C(C=C(C=C4)C(=O)NC5CCN(CC5)C)OC)C [NPK76-II-72-1] + N=C(N)NC(=N)NCCc1ccccc1 [Phenformin] (partner 250 µM)
How it was run: as §1

[4] = compound: CC[C@@H]1C(=O)N(C)c2cnc(Nc3ccc(C(=O)NC4CCN(C)CC4)cc3OC)nc2N1C1CCCC1 [BI-2536] + CC(=O)Nc1cccc(-n2c(=O)n(C3CC3)c(=O)c3c(Nc4ccc(I)cc4F)n(C)c(=O)c(C)c32)c1 [Trametinib] (partner 0.02 µM)
How it was run: as §1

Row | Cell Line | relative viability ([1]; first compound 0.01 µM) | relative viability ([1]; first compound 0.03162 µM) | relative viability ([1]; first compound 0.1 µM) | relative viability ([1]; first compound 0.3162 µM) | relative viability ([1]; first compound 1 µM) | relative viability ([2]; first compound 0.01 µM) | relative viability ([2]; first compound 0.03162 µM) | relative viability ([2]; first compound 0.1 µM) | relative viability ([2]; first compound 0.3162 µM) | relative viability ([2]; first compound 1 µM) | relative viability ([3]; first compound 0.01 µM) | relative viability ([3]; first compound 0.03162 µM) | relative viability ([3]; first compound 0.1 µM) | relative viability ([3]; first compound 0.3162 µM) | relative viability ([3]; first compound 1 µM) | relative viability ([4]; first compound 0.01 µM) | relative viability ([4]; first compound 0.03162 µM) | relative viability ([4]; first compound 0.1 µM) | relative viability ([4]; first compound 0.3162 µM) | relative viability ([4]; first compound 1 µM)
1 | NCI-H1703 | 0.244 | 0.239 | 0.137 | 0.174 | 0.131 | – | – | – | – | – | – | – | – | – | – | – | – | – | – | –
2 | NCI-H1437 | 0.428 | 0.427 | 0.397 | 0.098 | 0.099 | 0.809 | 0.751 | 0.394 | 0.301 | 0.312 | 0.312 | 0.288 | 0.297 | 0.293 | 0.333 | 0.636 | 0.483 | 0.428 | 0.149 | 0.177
3 | SK-LU-1 | 0.499 | 0.62 | 0.42 | 0.201 | 0.157 | 0.727 | 0.643 | 0.271 | 0.247 | 0.247 | 0.517 | 0.585 | 0.662 | 0.528 | 0.537 | 0.347 | 0.514 | 0.335 | 0.218 | 0.386
4 | H3255 | 0.503 | 0.503 | 0.305 | 0.176 | 0.182 | 0.736 | 0.786 | 0.447 | 0.519 | 0.306 | 0.365 | 0.326 | 0.376 | 0.31 | 0.37 | 0.571 | 0.582 | 0.294 | 0.281 | 0.424
5 | Calu-6 | 0.894 | 0.396 | 0.107 | 0.0926 | 0.0965 | – | – | – | – | – | – | – | – | – | – | – | – | – | – | –
6 | NCI-H1792 | 0.307 | 0.354 | 0.207 | 0.111 | 0.0623 | – | – | – | – | – | 0.289 | 0.367 | 0.16 | 0.287 | 0.422 | 0.604 | 0.417 | 0.395 | 0.0597 | 0.0491
7 | SK-MES-1 | 0.357 | 0.374 | 0.304 | 0.157 | 0.127 | 1.17 | 0.934 | 0.441 | 0.136 | 0.188 | 0.649 | 0.718 | 0.646 | 0.643 | 0.722 | 0.523 | 0.555 | 0.407 | 0.196 | 0.161
8 | NCI-H1650 | 0.567 | 0.366 | 0.146 | 0.162 | 0.0901 | 0.624 | 0.555 | 0.276 | 0.169 | 0.142 | 0.361 | 0.374 | 0.468 | 0.349 | 0.396 | 0.674 | 0.497 | 0.456 | 0.136 | 0.136
9 | NCI-H2087 | 1 | 0.872 | 0.381 | 0.192 | 0.143 | 0.731 | 0.773 | 0.229 | 0.0706 | 0.124 | 0.42 | 0.543 | 0.397 | 0.398 | 0.498 | 0.18 | 0.183 | 0.147 | 0.0838 | 0.0815
10 | HCC-366 | 0.144 | 0.179 | 0.0833 | 0.0304 | 0.0488 | 0.336 | 0.347 | 0.0476 | 0.0183 | 0.0214 | 0.593 | 0.669 | 0.65 | 0.559 | 0.607 | 0.364 | 0.371 | 0.235 | 0.0287 | 0.0227
11 | NCI-H727 | 0.391 | 0.338 | 0.433 | 0.265 | 0.19 | 1.12 | 1.11 | 0.797 | 0.513 | 0.4 | 0.49 | 0.435 | 0.481 | 0.411 | 0.672 | 0.366 | 0.364 | 0.379 | 0.362 | 0.332
12 | LU99A | 0.308 | 0.301 | 0.14 | 0.128 | 0.138 | 0.406 | 0.405 | 0.151 | 0.162 | 0.163 | 0.829 | 0.814 | 0.855 | 0.838 | 0.95 | 0.525 | 0.647 | 0.562 | 0.196 | 0.192
13 | EBC-1 | 0.35 | 0.232 | 0.147 | 0.158 | 0.119 | – | – | – | – | – | – | – | – | – | – | – | – | – | – | –
14 | NCI-H1623 | – | – | – | – | – | – | – | – | – | – | 0.562 | 0.563 | 0.622 | 0.324 | 0.622 | – | – | – | – | –
15 | NCI-H2342 | – | – | – | – | – | – | 0.705 | 0.79 | 0.445 | 0.385 | 0.606 | 0.472 | 0.675 | 0.394 | 0.623 | – | 0.705 | 0.73 | 0.604 | 0.454
16 | SW 900 | – | – | – | – | – | 0.445 | 0.598 | 0.481 | 0.159 | 0.218 | 0.559 | 0.73 | 0.657 | 0.664 | 0.699 | 0.929 | 0.942 | 0.875 | 0.828 | 0.147
17 | NCI-H1563 | 0.699 | 0.61 | 0.558 | 0.578 | 0.511 | – | – | – | – | – | 0.686 | 0.606 | 0.637 | 0.656 | 0.697 | – | – | – | – | –
18 | NCI-H1299 | 0.708 | 0.351 | 0.154 | 0.0991 | 0.0448 | – | – | – | – | – | – | – | – | – | – | – | – | – | – | –
19 | NCI-H522 | – | – | – | – | – | 0.785 | 0.933 | 0.533 | 0.277 | 0.284 | 0.557 | 0.732 | 0.639 | 0.563 | 0.699 | 0.745 | 0.757 | 0.766 | 0.302 | 0.289
20 | A549 | 0.46 | 0.461 | 0.0515 | 0.0559 | 0.0422 | – | – | – | – | – | – | 0.136 | 0.222 | 0.155 | 0.192 | – | – | – | – | –
21 | NCI-H1648 | – | – | – | – | – | 0.331 | 0.596 | 0.264 | 0.189 | 0.21 | – | – | – | – | – | 0.463 | 0.409 | 0.434 | 0.28 | 0.289
22 | IA-LM | 0.346 | 0.264 | 0.0753 | 0.0992 | 0.0622 | 1.07 | 1.26 | 0.692 | 0.0844 | 0.0605 | – | – | – | – | – | – | – | – | – | –
23 | ABC-1 | 0.81 | 0.609 | 0.214 | 0.31 | 0.243 | 1.22 | 1.06 | 0.613 | 0.418 | 0.51 | 0.264 | 0.223 | 0.202 | 0.258 | 0.28 | – | – | – | – | –
